Key:
[1] = target: T1, histamine H4 receptor (Homo sapiens, UniProt Q9H3N8); experiment: In vitro histamine H4 potency in FLIPR (Ca2+ flux, Fluo-4, HEK-293 cells coexpressing Gαqi5); format: cell-based; conditions: Kb values for antagonists and inverse agonists, EC50 values for partial agonists
T1 construct: expressed in transfected cells
Excerpt: There are many methods available to show the effectiveness of compounds as histamine H4 receptor ligands. Histamine H4 receptors from mammalian species have been cloned. Methods to clone, express, and assess the potency and functional activity of such cloned genes are well known to those skilled in the art of molecular biology. Examples of methods of cloning and expressing histamine H4 receptors, and of assessing the potency and functional activity are described in Nguyen, et al. Molecular Pharmacology (2001) vol. 59 pp. 427-433; Zhu, et al. Molecular Pharmacology (2001) vol. 59 pp. 434-441; Coge, et al., Biochemical and Biophysical Research Communications (2001) vol. 284, pp. 301-309; Liu, et al. Molecular Pharmacology (2001) vol. 59 pp. 420-426; Liu, et al. Journal of Pharmacology and Experimental Therapeutics (2001) v. 299, pp. 121-130; and Thurmond, et al. Journal of Pharmacology and Experimental Therapeutics (2004) v. 309, pp. 404-413. In the present case, to determine the potency and effectiveness of representative compounds of this invention as histamine-H4 receptor ligands (H4 receptor ligands), the following tests were conducted according to previously described methods (see Esbenshade, et al., Biochemical Pharmacology (2004), vol. 68, pp. 933-945, and in Krueger, et al., Journal of Pharmacology and Experimental Therapeutics (2005) v. 314, pp. 271-281): histamine H4 receptors were cloned and stably expressed in HEK-293 (human embryonic kidney) cells coexpressing a Gαqi5. Before testing, cells are loaded with a Ca^+2 sensitive fluorescent dye, in this case Fluo-4. In the case of partial agonist or agonist ligands, addition of compound to the cells leads to the increase in intracellular Ca^+2 which is detected by FLIPR (Fluorescence Imaging Plate Reader; Molecular Devices, Sunnyvale, Calif.) technology. In a similar manner, compounds that are antagonists or inverse agonists, block the increase in fluorescence induced by the full histamine H4 agonist histamine, and partial agonists reduce the amount of fluorescence induced by the full histamine H4 agonist histamine. The fluorescence intensities measured before addition of the test compound are subtracted from the fluorescence intensities at later time points. Peak response values determined at each concentration of ligand are expressed as a percentage of the response obtained with the full agonist histamine. Concentration versus response data are analyzed to obtain compound potency as Kb values for antagonists and inverse agonists and as EC50 values for partial agonists.

[2] = target: T1, histamine H4 receptor; experiment: 3H-histamine competition binding assay, membranes of transfected HEK-293 cells; conditions: displacement of [3H]-histamine, 25° C., 1 hour; Ki by Cheng-Prusoff equation; read-out: Potency
Procedure: The potency of compounds of the invention in displacing ^3H-histamine in competition binding assays is assessed by methods described in Esbenshade, et al., Biochemical Pharmacology (2004), vol. 68, pp. 933-945. In this assay, membranes were prepared from HEK-293 cells transiently transfected with the pCINeo expression vector harboring the histamine H4 receptor by homogenization of the cells on ice in TE buffer (50 mM Tris-HCl buffer, pH 7.4, containing 5 mM EDTA), 1 mM benzamidine, 2 μg/ml aprotinin, 1 μg/ml leupeptin, and 1 μg/ml pepstatin. The homogenate was centrifuged at 40,000 g for 20 minutes at 4° C. This step was repeated, and the resulting pellet was resuspended in TE buffer. Aliquots were frozen at −70° C. until needed. On the day of assay, membranes were thawed and diluted with TE buffer. Competition radioligand binding assays were performed with increasing concentrations of test compound in the presence of [^3H]-histamine incubated at 25° C. for 1 hour in a total volume of 0.5 ml of 50 mM Tris, 5 mM EDTA, pH 7.4. All binding reactions were terminated by filtration under vacuum onto polyethylenimine (0.3%) presoaked Unifilters (PerkinElmer Life Sciences) or Whatman GF/B filters (Whatman, Clifton, N.J.) followed by three brief washes with 4 ml of ice-cold TE buffer. Bound radiolabel was determined by liquid scintillation counting. For all of the radioligand competition binding assays, IC50 values and Hill slopes were determined by Hill transformation of the data and Ki values were determined by the Cheng-Prusoff equation. The following table of representative histamine H4 receptor ligands is provided, along with potency values: […]

| Potency [1] [nM] | Ki [2] [nM] | Compound |
| --- | --- | --- |
| 1860 |  | Cc1noc2c1-c1nc(N)nc(N3CC[C@@H](N)C3)c1CCC2 [Example 17, 4-[(3R)-3-aminopyrrolidin-1-yl]-10-methyl-6,7-dihydro-5H-isoxazolo[5′,4′:6,7]cyclohepta[1,2-d]pyrimidin-2-amine] |
| 252 |  | Cc1cc2c(o1)CCCc1c-2nc(N)nc1N1CC[C@@H](N)C1 [Example 6, 4-[(3R)-3-aminopyrrolidin-1-yl]-9-methyl-6,7-dihydro-5H-furo[2′,3′:6,7]cyclohepta[1,2-d]pyrimidin-2-amine] |
| 187 | 44 | CC(C)(C)n1ncc2c1CCCc1c-2nc(N)nc1N1CC2CCCNC2C1 (stereo not shown) [Example 10, 8-tert-butyl-4-octahydro-6H-pyrrolo[3,4-b]pyridin-6-yl-5,6,7,8-tetrahydropyrazolo[3′,4′:6,7]cyclohepta[1,2-d]pyrimidin-2-amine] |
| 35 |  | Nc1nc2c(c(N3CC4CCCNC4C3)n1)CCCc1sc(Br)cc1-2 (stereo not shown) [Example 12, 9-bromo-4-octahydro-6H-pyrrolo[3,4-b]pyridin-6-yl-6,7-dihydro-5H-thieno[2′,3′:6,7]cyclohepta[1,2-d]pyrimidin-2-amine] |
| 34 |  | Cc1cc2c(o1)CCCc1c-2nc(N)nc1N1CC2CCCNC2C1 (stereo not shown) [Example 5, 9-methyl-4-octahydro-6H-pyrrolo[3,4-b]pyridin-6-yl-6,7-dihydro-5H-furo[2′,3′:6,7]cyclohepta[1,2-d]pyrimidin-2-amine] |
| 700 |  | Nc1nc2c(c(N3CC4CCCNC4C3)n1)CCCc1sc(-c3ccccc3)cc1-2 (stereo not shown) [Example 13, 4-octahydro-6H-pyrrolo[3,4-b]pyridin-6-yl-9-phenyl-6,7-dihydro-5H-thieno[2′,3′:6,7]cyclohepta[1,2-d]pyrimidin-2-amine] |
| 37 |  | CN1CCN(c2nc(N)nc3c2CCCc2cccnc2-3)CC1 [Example 14, 4-(4-methylpiperazin-1-yl)-6,7-dihydro-5H-pyrido[3′,2′:6,7]cyclohepta[1,2-d]pyrimidin-2-amine] |
| 46 |  | CN[C@@H]1CCN(c2nc(N)nc3c2CCCc2c-3cnn2-c2ccccc2)C1 [Example 11, 4-[(3R)-3-(methylamino)pyrrolidin-1-yl]-8-phenyl-5,6,7,8-tetrahydropyrazolo[3′,4′:6,7]cyclohepta[1,2-d]pyrimidin-2-amine] |
|  | 1300 | CN1CCN(c2nc(N)nc3c2CCc2nn(-c4ccccc4)nc2-3)CC1 [Example 20, 6-(4-methylpiperazin-1-yl)-2-phenyl-4,5-dihydro-2H-[1,2,3]triazolo[4,5-h]quinazolin-8-amine] |
| 105 | 426 | Cn1ncc2c1CCCc1c-2nc(N)nc1N1CC[C@@H](N)C1 [Example 9, 4-[(3R)-3-aminopyrrolidin-1-yl]-8-methyl-5,6,7,8-tetrahydropyrazolo[3′,4′:6,7]cyclohepta[1,2-d]pyrimidin-2-amine] |
| 2350 |  | Cc1noc2c1-c1nc(N)nc(N3CCN(C)CC3)c1CCC2 [Example 16, 10-methyl-4-(4-methylpiperazin-1-yl)-6,7-dihydro-5H-isoxazolo[5′,4′:6,7]cyclohepta[1,2-d]pyrimidin-2-amine] |
| 107 |  | CN1CCN(c2nc(N)nc3c2CCCc2c-3cnn2C)CC1 [Example 8, 8-methyl-4-(4-methylpiperazin-1-yl)-5,6,7,8-tetrahydropyrazolo[3′,4′:6,7]cyclohepta[1,2-d]pyrimidin-2-amine] |
| 3.7 | 8.8 | CN[C@@H]1CCN(c2nc(N)nc3c2CCCc2sccc2-3)C1 [Example 3, 4-[(3R)-3-(methylamino)pyrrolidin-1-yl]-6,7-dihydro-5H-thieno[2′,3′:6,7]cyclohepta[1,2-d]pyrimidin-2-amine] |
| 6.6 | 10 | Nc1nc2c(c(N3CC[C@@H](N)C3)n1)CCCc1sccc1-2 [Example 2, 4-[(3R)-3-aminopyrrolidin-1-yl]-6,7-dihydro-5H-thieno[2′,3′:6,7]cyclohepta[1,2-d]pyrimidin-2-amine] |
| 35 |  | Nc1nc2c(c(N3CC[C@@H](N)C3)n1)CCCc1cccnc1-2 [Example 15, 4-[(3R)-3-aminopyrrolidin-1-yl]-6,7-dihydro-5H-pyrido[3′,2′:6,7]cyclohepta[1,2-d]pyrimidin-2-amine] |
|  | 80 | CN1CCN(c2nc(N)nc3c2CCc2sccc2-3)CC1 [Example 21, 4-(4-methylpiperazin-1-yl)-5,6-dihydrothieno[2,3-h]quinazolin-2-amine] |

| Compound | Potency [1] [nM] | Ki [2] [nM] |
| --- | --- | --- |
| Nc1nc2c(c(N3CC4CCCNC4C3)n1)CCCc1ccoc1-2 (stereo not shown) [Example 7, 4-octahydro-6H-pyrrolo[3,4-b]pyridin-6-yl-6,7-dihydro-5H-furo[3′,2′:6,7]cyclohepta[1,2-d]pyrimidin-2-amine] | 20 | 165 |
| Nc1nc2c(c(N3C[C@H]4CCCN[C@H]4C3)n1)CCCc1sccc1-2 [Example 18, 4-[(4aR,7aR)-octahydro-6H-pyrrolo [3,4-b]pyridin-6-yl]-6,7-dihydro-5H-thieno[2′,3′:6,7]cyclohepta[1,2-d]pyrimidin-2-amine] | 6 | 1.8 |
| Nc1nc2c(c(N3CC4CCCNC4C3)n1)CCCc1occc1-2 (stereo not shown) [Example 4, 4-octahydro-6H-pyrrolo[3,4-b]pyridin-6-yl-6,7-dihydro-5H-furo[2′,3′:6,7]cyclohepta[1,2-d]pyrimidin-2-amine] | 14 | 12 |
| Nc1nc2c(c(N3CC4CCCNC4C3)n1)CCCc1sccc1-2 (stereo not shown) [Example 1, 4-octahydro-6H-pyrrolo[3,4-b]pyridin-6-yl-6,7-dihydro-5H-thieno[2′,3′:6,7]cyclohepta[1,2-d]pyrimidin-2-amine] | 17 | 6 |

Source: patent US8546410B2, “Heteroaryl-fused macrocyclic pyrimidine derivatives” (AbbVie Inc., priority 2008, dated 2013)
